Data set [1] has as its target T1, full-length beta-Catenin (Uniprot ID P35222) (Homo sapiens, UniProt P35222).
T1 construct: 10 nM full-length beta-Catenin (Uniprot ID P35222)
T1 sequence (P35222 1-781): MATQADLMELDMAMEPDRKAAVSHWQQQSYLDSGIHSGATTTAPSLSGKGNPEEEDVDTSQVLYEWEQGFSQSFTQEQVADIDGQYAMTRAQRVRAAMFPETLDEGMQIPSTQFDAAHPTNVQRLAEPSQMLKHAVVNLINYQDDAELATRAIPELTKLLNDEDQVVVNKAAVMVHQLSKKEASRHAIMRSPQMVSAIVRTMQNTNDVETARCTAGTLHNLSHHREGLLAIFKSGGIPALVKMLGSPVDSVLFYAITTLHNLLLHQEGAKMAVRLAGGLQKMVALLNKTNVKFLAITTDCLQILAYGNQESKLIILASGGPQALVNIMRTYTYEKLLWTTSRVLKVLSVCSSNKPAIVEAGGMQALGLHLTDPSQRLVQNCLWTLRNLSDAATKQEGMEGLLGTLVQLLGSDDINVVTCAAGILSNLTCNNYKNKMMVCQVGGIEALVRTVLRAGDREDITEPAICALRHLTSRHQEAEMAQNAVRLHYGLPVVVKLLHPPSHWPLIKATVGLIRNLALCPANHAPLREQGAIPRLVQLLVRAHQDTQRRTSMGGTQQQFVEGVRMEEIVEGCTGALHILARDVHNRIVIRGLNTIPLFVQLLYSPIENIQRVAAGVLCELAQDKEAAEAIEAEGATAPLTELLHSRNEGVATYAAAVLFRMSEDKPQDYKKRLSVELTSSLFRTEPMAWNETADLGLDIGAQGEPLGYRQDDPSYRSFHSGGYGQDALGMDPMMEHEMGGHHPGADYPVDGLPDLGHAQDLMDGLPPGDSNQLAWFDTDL
Nature of the data set: Fluorescence polarization IC50 (beta-catenin / 5FAM-TCF4 10-53 competition). The format is binding. Background: Fluorescence polarisation rises when a labelled molecule tumbles more slowly, as on binding a larger partner.

The next data set in a line: CHI Log D procedure. The settings on record: pH 7.4. The format is physicochemical.
[2] abbreviates: fluorescence polarization, read-out: beta-Catenin FP IC50.

The results in this text go back to patent US20240116985A1, “STAPLED PEPTIDES AND METHODS THEREOF” (priority 2020, published 2024).

The structures appear in SMILES notation. Read-outs that look alike come from different tables or passages of the source.

Take `CC[C@H](C)[C@@H]1NC(=O)[C@H](CC(=O)O)NC(=O)[C@]2(CC=CCCCC3(CCCC=CCCCCCC[C@@](C)(C(=O)N[C@@H](Cc4ccccc4OC)C(=O)N[C@@H](Cc4csc5ccccc45)C(=O)N[C@@H](Cc4c[nH]cn4)C(N)=O)NC(=O)[C@H](CC(N)=O)NC(=O)[C@H](Cc4ccccc4)NC(=O)[C@H](C)NC(=O)[C@H](C)NC(=O)[C@H](CC(=O)O)NC(=O)[C@H](CC(=O)O)NC3=O)NC1=O)CCCN2C(C)=O` (stereo partly drawn) [I-553, Ac-PL3-Asp-Ile-B5-Asp-Asp-Ala-Ala-Phe-Asn-S8-2OMeF-BztA-His-NH2]: the IC50 in data set [1] (setting [2]) and in data set [1] (read-out: FP EC50) was 61 nM each time. For the same compound, the “CHI Log D” value in the data set “CHI Log D procedure” is 2.398.
Consider `CC(=O)N1CCC[C@]12CC=CCCCC1(CCCC=CCCCCCC[C@@](C)(C(=O)N[C@@H](Cc3ccccc3)C(=O)N[C@@H](Cc3csc4ccccc34)C(=O)N[C@@H](CCC(N)=O)C(N)=O)NC(=O)[C@H](CCC(N)=O)NC(=O)[C@H](Cc3ccccc3)NC(=O)[C@H](C)NC(=O)[C@H](C)NC(=O)[C@H](CC(=O)O)NC(=O)[C@H](CC(=O)O)NC1=O)NC(=O)[C@H](CC(C)C)NC(=O)[C@H](CC(=O)O)NC2=O` (stereo partly drawn) [I-558, Ac-PL3-Asp-Leu-B5-Asp-Asp-Ala-Ala-Phe-Gln-S8-Phe-BztA-Gln-NH2], for which the IC50 in data set [1] (setting [2]) and in data set [1] (read-out: FP EC50) was 56 nM each time. In addition, in “CHI Log D procedure”, the “CHI Log D” value stood at 2.308.
In the case of `CC(=O)N1CCC[C@]12CC=CCCCC1(CCCC=CCCCCCC[C@@](C)(C(=O)N[C@@H](Cc3ccccc3)C(=O)N[C@@H](Cc3csc4ccccc34)C(=O)N[C@@H](CCC(N)=O)C(N)=O)NC(=O)[C@H](CCC(N)=O)NC(=O)[C@H](Cc3ccccc3)NC(=O)[C@H](C)NC(=O)[C@H](C)NC(=O)[C@H](CC(=O)O)NC(=O)[C@H](CC(=O)O)NC1=O)NC(=O)[C@H](CC(C)C)NC(=O)[C@H](CC(=O)O)NC2=O` (stereo partly drawn) [I-559, Ac-PL3-Asp-Leu-B5-Asp-Asp-Ala-Ala-Phe-Gln-S8-Phe-BztA-Gln-NH2], the IC50 in data set [1] (setting [2]) and in data set [1] (read-out: FP EC50) was 43 nM throughout. The “CHI Log D” value in the data set “CHI Log D procedure” is reported as 2.341.
For the compound `CC(=O)N1CCC[C@]12CC=CCCCC1(CCCC=CCCCCCC[C@@](C)(C(=O)N[C@@H](Cc3ccccc3)C(=O)N[C@@H](Cc3csc4ccccc34)C(=O)N[C@@H](Cc3c[nH]cn3)C(N)=O)NC(=O)[C@H](CCC(N)=O)NC(=O)[C@H](Cc3ccccc3)NC(=O)[C@H](C)NC(=O)[C@H](C)NC(=O)[C@H](CC(=O)O)NC(=O)[C@H](CC(=O)O)NC1=O)NC(=O)[C@H](CC(C)C)NC(=O)[C@H](CC(=O)O)NC2=O` (stereo partly drawn) [I-560, Ac-PL3-Asp-Leu-B5-Asp-Asp-Ala-Ala-Phe-Gln-S8-Phe-BztA-His-NH2], the IC50 in data set [1] (setting [2]) and in data set [1] (read-out: FP EC50) was 81 nM throughout. Besides, the “CHI Log D” value in “CHI Log D procedure” turned out to be 2.391.
Take `CC(=O)N1CCC[C@]12CC=CCCCC1(CCCC=CCCCCCC[C@@](C)(C(=O)N[C@@H](Cc3ccccc3)C(=O)N[C@@H](Cc3csc4ccccc34)C(=O)N[C@@H](CCC(N)=O)C(N)=O)NC(=O)[C@H](CC(N)=O)NC(=O)[C@H](Cc3ccccc3)NC(=O)[C@H](C)NC(=O)[C@H](C)NC(=O)[C@H](CC(=O)O)NC(=O)[C@H](CC(=O)O)NC1=O)NC(=O)[C@H](CC(C)C)NC(=O)[C@H](CC(=O)O)NC2=O` (stereo partly drawn) [I-562, Ac-PL3-Asp-Leu-B5-Asp-Asp-Ala-Ala-Phe-Asn-S8-Phe-BztA-Gln-NH2]: the IC50 in data set [1] (setting [2]) and in data set [1] (read-out: FP EC50) was 51 nM in each case. Moreover, the “CHI Log D” value in “CHI Log D procedure” is on record as 2.269.
Turning to `CC(=O)N1CCC[C@]12CC=CCCCC1(CCCC=CCCCCCC[C@@](C)(C(=O)N[C@@H](Cc3ccccc3)C(=O)N[C@@H](Cc3csc4ccccc34)C(=O)N[C@@H](CCC(N)=O)C(N)=O)NC(=O)[C@H](CC(N)=O)NC(=O)[C@H](Cc3ccccc3)NC(=O)[C@H](C)NC(=O)[C@H](C)NC(=O)[C@H](CC(=O)O)NC(=O)[C@H](CC(=O)O)NC1=O)NC(=O)[C@H](C(C)C)NC(=O)[C@H](CC(=O)O)NC2=O` (stereo partly drawn) [I-566, Ac-PL3-Asp-Val-B5-Asp-Asp-Ala-Ala-Phe-Asn-S8-Phe-BztA-Gln-NH2], the IC50 in data set [1] (setting [2]) and in data set [1] (read-out: FP EC50) was 76 nM each time. The “CHI Log D” value in the data set “CHI Log D procedure” was found to be 2.175.
As to `CC[C@@H]1NC(=O)[C@H](CC(=O)O)NC(=O)[C@]2(CC=CCCCC3(CCCC=CCCCCCC[C@@](C)(C(=O)N[C@@H](Cc4ccccc4)C(=O)N[C@@H](Cc4csc5ccccc45)C(=O)N[C@@H](CCC(N)=O)C(N)=O)NC(=O)[C@H](CCC(N)=O)NC(=O)[C@H](Cc4ccccc4)NC(=O)[C@H](C)NC(=O)[C@H](C)NC(=O)[C@H](CCC(=O)O)NC(=O)[C@H](CC(=O)O)NC3=O)NC1=O)CCCN2C(C)=O` (stereo partly drawn) [I-568, Ac-PL3-Asp-Abu-B5-Asp-Glu-Ala-Ala-Phe-Gln-S8-Phe-BztA-Gln-NH2], the IC50 in data set [1] (setting [2]) and in data set [1] (read-out: FP EC50) was 73 nM in each case. For the same compound, the “CHI Log D” value in “CHI Log D procedure” is 2.158.
With `CC[C@@H]1NC(=O)[C@H](CC(=O)O)NC(=O)[C@]2(CC=CCCCC3(CCCC=CCCCCCC[C@@](C)(C(=O)N[C@@H](Cc4ccccc4)C(=O)N[C@@H](Cc4csc5ccccc45)C(=O)N[C@@H](Cc4c[nH]cn4)C(N)=O)NC(=O)[C@H](CCC(N)=O)NC(=O)[C@H](Cc4ccccc4)NC(=O)[C@H](C)NC(=O)[C@H](C)NC(=O)[C@H](CCC(=O)O)NC(=O)[C@H](CC(=O)O)NC3=O)NC1=O)CCCN2C(C)=O` (stereo partly drawn) [I-570, Ac-PL3-Asp-Abu-B5-Asp-Glu-Ala-Ala-Phe-Gln-S8-Phe-BztA-His-NH2], the IC50 in data set [1] (setting [2]) and in data set [1] (read-out: FP EC50) was 56 nM each time. The “CHI Log D” value in “CHI Log D procedure” was determined as 2.219.
Consider `CC[C@@H]1NC(=O)[C@H](CC(=O)O)NC(=O)[C@]2(CC=CCCCC3(CCCC=CCCCCCC[C@@](C)(C(=O)N[C@@H](Cc4ccccc4)C(=O)N[C@@H](Cc4csc5ccccc45)C(=O)N[C@@H](CCC(N)=O)C(N)=O)NC(=O)[C@H](CC(N)=O)NC(=O)[C@H](Cc4ccccc4)NC(=O)[C@H](C)NC(=O)[C@H](C)NC(=O)[C@H](CC(=O)O)NC(=O)[C@H](CC(=O)O)NC3=O)NC1=O)CCCN2C(C)=O` (stereo partly drawn) [I-572, Ac-PL3-Asp-Abu-B5-Asp-Asp-Ala-Ala-Phe-Asn-S8-Phe-BztA-Gln-NH2], for which the IC50 in data set [1] (setting [2]) and in data set [1] (read-out: FP EC50) was 73 nM in each case. Further, the “CHI Log D” value in the data set “CHI Log D procedure” is 2.064.
As for `CC[C@H](C)[C@@H]1NC(=O)[C@H](CC(=O)O)NC(=O)[C@]2(CC=CCCCC3(CCCC=CCCCCCC[C@@](C)(C(=O)N[C@@H](Cc4ccccc4)C(=O)N[C@@H](Cc4csc5ccccc45)C(=O)N[C@@H](Cc4c[nH]cn4)C(N)=O)NC(=O)[C@H](CCC(N)=O)NC(=O)[C@H](Cc4ccccc4)NC(=O)[C@H](C)NC(=O)[C@H](C)NC(=O)[C@H](CC(=O)O)NC(=O)[C@H](CC(=O)O)NC3=O)NC1=O)CCCN2C(C)=O` (stereo partly drawn) [I-581, Ac-PL3-Asp-Ile-B5-Asp-Asp-Ala-Ala-Phe-Gln-S8-Phe-BztA-His-NH2], the IC50 in data set [1] (setting [2]) and in data set [1] (read-out: FP EC50) was 112 nM in each case. The “CHI Log D” value in “CHI Log D procedure” is reported as 2.458.
Take `CC(=O)N1CCC[C@]12CC=CCCCC1(CCCC=CCCCCCC[C@@](C)(C(=O)N[C@@H](Cc3ccccc3)C(=O)N[C@@H](Cc3csc4ccccc34)C(=O)N[C@@H](Cc3c[nH]cn3)C(N)=O)NC(=O)[C@H](CC(N)=O)NC(=O)[C@H](Cc3ccccc3)NC(=O)[C@H](C)NC(=O)[C@H](C)NC(=O)[C@H](CC(=O)O)NC(=O)[C@H](CC(=O)O)NC1=O)NC(=O)[C@H](CCC(C)C)NC(=O)[C@H](CC(=O)O)NC2=O` (stereo partly drawn) [I-583, Ac-PL3-Asp-hLeu-B5-Asp-Asp-Ala-Ala-Phe-Asn-S8-Phe-BztA-His-NH2]: the IC50 in data set [1] (setting [2]) and in data set [1] (read-out: FP EC50) was 69 nM in each case. Further, the “CHI Log D” value in “CHI Log D procedure” is reported as 2.563.
As for `CC(=O)N1CCC[C@]12CC=CCCCC1(CCCC=CCCCCCC[C@@](C)(C(=O)N[C@@H](Cc3ccccc3)C(=O)N[C@@H](Cc3csc4ccccc34)C(=O)N[C@@H](CCC(N)=O)C(N)=O)NC(=O)[C@H](CCC(N)=O)NC(=O)[C@H](Cc3ccccc3)NC(=O)[C@H](C)NC(=O)[C@H](C)NC(=O)[C@H](CCC(=O)O)NC(=O)[C@H](CC(=O)O)NC1=O)NC(=O)[C@H](CCCCNC(=O)CN=[N+]=[N-])NC(=O)[C@H](CC(=O)O)NC2=O` (stereo partly drawn) [I-589, Ac-PL3-Asp-[AzAc]Lys-B5-Asp-Glu-Ala-Ala-Phe-Gln-S8-Phe-BztA-Gln-NH2], the IC50 in data set [1] (read-out: FP EC50) is 48 nM. Also, the “CHI Log D” value in the data set “CHI Log D procedure” was found to be 2.119.
Turning to `CC(=O)N1CCC[C@]12CC=CCCCC1(CCCC=CCCCCCC[C@@](C)(C(=O)N[C@@H](Cc3ccccc3)C(=O)N[C@@H](Cc3csc4ccccc34)C(=O)N[C@@H](CCC(N)=O)C(N)=O)NC(=O)[C@H](CCC(N)=O)NC(=O)[C@H](Cc3ccccc3)NC(=O)[C@H](C)NC(=O)[C@H](C)NC(=O)[C@H](CCC(=O)O)NC(=O)[C@H](CC(=O)O)NC1=O)NC(=O)[C@H](CCCCNC(=O)CN=[N+]=[N-])NC(=O)[C@H](CC(=O)O)NC2=O` (stereo partly drawn) [I-590, Ac-PL3-Asp-[AzAc]Lys-B5-Asp-Glu-Ala-Ala-Phe-Gln-S8-Phe-BztA-Gln-NH2], the IC50 in data set [1] (read-out: FP EC50) was 45 nM. Moreover, the “CHI Log D” value in the data set “CHI Log D procedure” worked out at 2.152.
